Virus titer data for 5 compounds are collected here from ChEMBL document CHEMBL1121587, “Synthesis of some new S-alkylated derivatives of 5-mercapto-2'-deoxyuridine as potential antiviral agents” (1980).

This assay relates to HeLa. The experiment in a line: Compound was evaluated for antiviral activity against Herpes simplex type 1 in HeLa TK- cells at 100 uM concentration. It counts as functional, Homo sapiens.

Take `C=CCSc1cnc(O)nc1O`: the Virus titer was 65000000 pfu/ml.

On to `CSc1cn(O[C@H]2CC(O)[C@@H](CO)O2)c(=O)[nH]c1=O` (stereo not given in full), for which the Virus titer was determined as 5200000 pfu/ml. In turn, `C#CSc1cnc(O)nc1O` gave a Virus titer of 37000000 pfu/ml. Take `C=CCSc1cn(O[C@H]2CC(O)[C@@H](CO)O2)c(=O)[nH]c1=O` (stereo not given in full): the Virus titer is 5300000 pfu/ml. For `O=c1[nH]c(=O)n(O[C@H]2CC(O)[C@@H](CO)O2)cc1SCCO` (stereo not given in full), the Virus titer is given as 38000000 pfu/ml.
